Experimental data from patent US20250235148A1, “IBS RELATED TESTING AND TREATMENT” (IBS-80, LLC, priority 2021, published 2025).
Like-named read-outs stand apart in the source and are kept apart here.

Assays:
skin of each patient [1] = conditions: human, in vivo, 48 h
skin of each patient [2] = assay: skin patch testing with the first 28 common test materials (Example 2); conditions: of 15 symptomatic patients (IBS or IBS-like symptoms)

patients with a positive patch test (skin of each patient [1]) | Compound | patients with a positive patch test (skin of each patient [2])
1 | CCCCCCCCCCCCOC(=O)c1cc(O)c(O)c(O)c1 [dodecyl gallate] | 
 | O=C(OOC(=O)c1ccccc1)c1ccccc1 [benzoyl peroxide] | 1
 | C=C(C)[C@H]1CC=C(C)CC1 [dipentene] | 1
